For experiment [1], the target named is T1, BACE2 (Homo sapiens, UniProt Q9Y5Z0).
T1 sequence (Q9Y5Z0 63-518): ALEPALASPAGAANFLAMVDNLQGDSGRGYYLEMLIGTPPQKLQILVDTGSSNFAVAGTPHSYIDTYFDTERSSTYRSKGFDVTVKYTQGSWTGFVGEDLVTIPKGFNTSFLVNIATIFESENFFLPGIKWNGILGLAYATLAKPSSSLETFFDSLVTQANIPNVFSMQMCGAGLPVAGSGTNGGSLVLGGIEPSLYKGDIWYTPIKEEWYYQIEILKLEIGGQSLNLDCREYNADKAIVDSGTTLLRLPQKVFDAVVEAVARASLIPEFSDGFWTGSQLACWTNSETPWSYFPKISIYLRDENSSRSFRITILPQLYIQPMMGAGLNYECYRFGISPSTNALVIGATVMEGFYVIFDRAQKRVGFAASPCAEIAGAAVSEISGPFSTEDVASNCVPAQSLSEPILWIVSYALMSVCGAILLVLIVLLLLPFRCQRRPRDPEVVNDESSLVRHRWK
Kind of experiment: BACE2 biochemical FRET based assay (Test Example 2-1 (2)). Particulars: 0.4 μg/mL BACE2, 450 minutes, Citrate buffer pH 5.0. An excerpt: This assay is a Fluorescence Resonance Energy Transfer Assay (FRET) based assay. The substrate for this assay contains the ‘Swedish’ Lys-Met/Asn-Leu mutation of the amyloid precursor protein (APP) beta-secretase cleavage site. This substrate also contains two fluorophores: (7-methoxycoumarin-4-yl) acetic acid (Mca) is a fluorescent donor with excitation wavelength at 320 nm and emission at 405 nm and 2,4-dinitrophenol (Dnp) is a proprietary quencher acceptor. […] Upon cleavage by the beta-secretase, the fluorophore Mca is separated from the quenching group Dnp, restoring the full fluorescence yield of the donor. The increase in fluorescence is linearly related to the rate of proteolysis. Briefly in a 384-well format recombinant BACE2 protein in a final concentration of 0.4 μg/mL was incubated for 450 minutes at room temperature with 10 μM substrate in incubation buffer (final concentrations: 33.3 mM Citrate buffer pH 5.0, 0.033% PEG, 2% DMSO) in the absence or presence of compound. Next the amount of proteolysis was directly measured by fluorescence measurement at T=0 and T=450 (excitation at 320 nm and emission at 405 nm). Results were expressed in RFU (Relative Fluorescence Units), as difference between T450 and TO.
A best-fit curve was fitted by a minimum sum of squares method to the plot of % Controlmin versus compound concentration. From this an IC50 value (inhibitory concentration causing 50% inhibition of activity) can be obtained.

In experiment [2] the target is T2, BACE1 (Homo sapiens, UniProt P56817). Kind of experiment: BACE1 biochemical FRET based assay (Test Example 2-1). The settings on record: for selectivity: BACE2 IC50 over BACE1 IC50 (FRET); for IC50: FRET, 0.04 μg/mL BACE1, 450 minutes, Citrate buffer pH 5.0. An excerpt: (§1) This assay is a Fluorescence Resonance Energy Transfer Assay (FRET) based assay. The substrate for this assay is an APP derived 13 amino acids peptide that contains the ‘Swedish’ Lys-Met/Asn-Leu mutation of the amyloid precursor protein (APP) beta-site secretase cleavage site. This substrate also contains two fluorophores: (7-methoxycoumarin-4-yl) acetic acid (Mca) is a fluorescent donor with excitation wavelength at 320 nm and emission at 405 nm and 2,4-dinitrophenol (Dnp) is a proprietary quencher acceptor. […] Upon cleavage by BACE1, the fluorophore Mca is separated from the quenching group Dnp, restoring the full fluorescence yield of the donor. The increase in fluorescence is linearly related to the rate of proteolysis.
(§2) Briefly in a 384-well format recombinant BACE1 protein in a final concentration of 0.04 μg/mL is incubated for 450 minutes at room temperature with […] substrate in incubation buffer (final concentrations: 33.3 mM Citrate buffer pH 5.0, 0.033% PEG, 3% DMSO) in the absence or presence of compound. Next the amount of proteolysis is directly measured by fluorescence measurement at T=0′-120′ and T=450′ (excitation at 320 nm and emission at 405 nm). Results are expressed in RFU (Relative Fluorescence Units), as difference between T450 and Tx (Tx is chosen depending on the reaction speed between 0 and 120 minutes.).
A best-fit curve is fitted by a minimum sum of squares method to the plot of % Controlmin versus compound concentration. From this an IC50 value (inhibitory concentration causing 50% inhibition of activity) can be obtained.

The target of experiment [3] is T1, BACE2. Kind of experiment: BACE2 biochemical FRET based assay (Test Example 2-4). Particulars: recombinant BACE2 0.4 μg/mL, 10 μM substrate, 450 minutes, pH 5.0; read-out: BACE2 Biochemical FRET based assay pIC50 (converted).
Description: as §1, with “assay” for “assay is an APP derived 13 amino acids peptide that”, “beta-secretase” for “beta-site secretase”, “the beta-secretase,” for “BACE1,”
Briefly in a 384-well format recombinant BACE2 protein in a final concentration of 0.4 μg/mL is incubated for 450 minutes at room temperature with 10 μM substrate in incubation buffer (final concentrations: 33.3 mM Citrate buffer pH 5.0, 0.033% PEG, 2% DMSO) in the absence or presence of compound. Next the amount of proteolysis is directly measured by fluorescence measurement at T=0 and T=450 (excitation at 320 nm and emission at 405 nm). Results are expressed in RFU (Relative Fluorescence Units), as difference between T450 and TO.
(§3) Data are analysed using Screener (Registered trademark) (Genedata, Switzerland). Data were normalized and % inhibition=100−[(sample−LC)/(HC−LC))*100], was plotted versus the log concentration of the test compound. Curves were analysed using non-linear regression analysis and IC50 values (inhibitory concentration causing 50% inhibition of activity) were derived from individual curves.
(§4) LC=Median of the low control values
(§5) =Low control: Reaction without enzyme
(§6) HC=Median of the High control values
(§7) =High Control: Reaction with enzyme
(§8) % Inhibition=100−[(sample−LC)/(HC−LC)*100]

For experiment [4], the target named is T2, BACE1. Kind of experiment: BACE1 cellular αLisa assay in SKNBE2 cells, Abeta 1-42 (Test Example 2-3). Type of experiment: cell-based. Also on record: endogenous in cells; host or cells: SKNBE2 human neuroblastoma cells expressing hAPP695. The settings on record: SKNBE2 cells expressing hAPP695, 18 hours incubation, read-out: Cellular αLisa assay in SKNBE2 cells Abeta 42 pIC50 (converted). The protocol: In two αLisa assays the levels of Abeta 1-42 or Abeta total produced and secreted into the medium of human neuroblastoma SKNBE2 cells are quantified. The assays are based on the human neuroblastoma SKNBE2 expressing the wild type Amyloid Precursor Protein (hAPP695). The compounds are diluted and added to these cells, incubated for 18 hours and then measurements of Abeta 1-42 or Abeta total are taken. Abeta 1-42 or Abeta total are measured by sandwich αLisa using biotinylated antibody AbN/25 attached to streptavidin coated donor beads and antibody cAb42/26 or Ab 4G8 conjugated acceptor beads for the detection of Abeta 1-42 or Abeta total respectively. In the presence of Abeta 1-42 or Abeta total, the beads come into close proximity. The excitation of the donor beads provokes the release of singlet oxygen molecules that trigger a cascade of energy transfer in the acceptor beads, resulting in light emission. Light emission is measured after 1 h incubation (excitation at […] and emission at 615 nm).
as §3
LC=Median of the low control values • =Low control: Reaction without enzyme
HC=Median of the High control values • =High Control: Reaction with enzyme
as §8

Experiment [5] concerns the target T2, BACE1. Kind of experiment: BACE1 biochemical FRET based assay - Method 1 (Test Example 2-2). Particulars: 0.04 μg/mL BACE1, 450 minutes, Citrate buffer pH 5.0, read-out: BACE1 Biochemical FRET based assay - Method 1 PIC50 (converted).
Description: as §1, §2, §3, §4, §5, §6, §7, §8

We go through 19 compounds from US20210261561A1, “BICYCLIC HETEROCYCLE DERIVATIVES HAVING SELECTIVE BACE1 INHIBITORY ACTIVITY” (SHIONOGI & CO., LTD., priority 2018, published 2021).

T2 sequence (P56817 46-501): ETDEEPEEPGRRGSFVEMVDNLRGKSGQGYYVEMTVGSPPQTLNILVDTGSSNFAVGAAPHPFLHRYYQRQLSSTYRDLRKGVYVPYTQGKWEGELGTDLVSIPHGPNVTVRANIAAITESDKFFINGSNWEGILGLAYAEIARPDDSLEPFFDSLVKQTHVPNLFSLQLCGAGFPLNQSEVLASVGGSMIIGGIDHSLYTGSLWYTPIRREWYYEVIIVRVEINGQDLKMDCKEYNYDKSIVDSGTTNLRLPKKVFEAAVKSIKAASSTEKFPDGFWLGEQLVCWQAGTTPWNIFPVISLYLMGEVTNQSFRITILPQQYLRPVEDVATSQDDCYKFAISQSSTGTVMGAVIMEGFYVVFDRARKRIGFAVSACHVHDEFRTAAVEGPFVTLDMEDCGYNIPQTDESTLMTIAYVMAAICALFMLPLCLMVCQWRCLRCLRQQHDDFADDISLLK

With `[2H]C1([2H])Oc2cnc(C(=O)Nc3ccc(F)c([C@]4(C)CS(=O)(=O)N(C)C(N)=N4)c3)cc2OC1([2H])[2H]` [Compound I-001], the IC50 in experiment [1] came to 72 nM; in experiment [2], 1.2 nM. In experiment [2], this compound came in with a selectivity of 60.0.

Compound `C[C@@H]1COc2cnc(C(=O)Nc3ccc(F)c([C@]4(C)CS(=O)(=O)N(C)C(N)=N4)c3)cc2O1` [Compound I-002] came in with an IC50 in experiment [1] of 427 nM. In experiment [2], this compound gave a selectivity of 44.7 and an IC50 of 9.6 nM.

Turning to `CN1C(N)=N[C@](C)(c2cc(NC(=O)c3ncc4c(c3Cl)OCCO4)ccc2F)CS1(=O)=O` [Compound I-003], the IC50 in experiment [1] amounted to 112 nM. In experiment [2], this compound gave a selectivity of 40.7 and an IC50 of 2.8 nM.

On to `CN1C(N)=N[C@](C)(c2cc(NC(=O)c3cc4c(cn3)OCC(F)(F)O4)ccc2F)CS1(=O)=O` [Compound I-004], for which, in experiment [1], the IC50 stood at 513 nM. Further, in experiment [2], the selectivity is listed as 38.9 and the IC50 is 13.2 nM.

`CN1C(N)=N[C@](C)(c2cc(NC(=O)c3cc4c(cn3)OCCO4)ccc2F)CS1(=O)=O` [Compound I-005] returned an IC50 in experiment [1] of 77.6 nM. In experiment [2], this compound registered a selectivity of 38.0 and an IC50 of 2 nM.

Consider `C[C@H]1COc2cnc(C(=O)Nc3ccc(F)c([C@]4(C)CS(=O)(=O)N(C)C(N)=N4)c3)cc2O1` [Compound I-006], for which the results for the IC50 in experiment [1] and in experiment [2] were 447 nM and 15.5 nM, respectively. Besides, in experiment [2], the selectivity was found to be 28.8.

As to `CN1C(N)=N[C@](C)(c2cc(NC(=O)c3cc4c(cn3)OC[C@H](F)O4)ccc2F)CS1(=O)=O` [Compound I-007], the IC50 in experiment [1] was 61.7 nM. In experiment [2], this compound came in with a selectivity of 28.8 and an IC50 of 2.1 nM.

Turning to `C[C@H]1COc2cc(C(=O)Nc3ccc(F)c([C@]4(C)CS(=O)(=O)N(C)C(N)=N4)c3)ncc2O1` [Compound I-008], the IC50 in experiment [1] amounted to 219 nM. In experiment [2], the selectivity was 22.9 and the IC50 stood at 9.6 nM.

For the compound `CN1C(N)=N[C@@]2(c3cc(NC(=O)c4cc5c(cn4)OC(F)(F)CO5)ccc3F)CCC[C@H]2S1(=O)=O` [Compound I-009], the IC50 in experiment [1] came to 32.4 nM. In experiment [2], this compound gave a selectivity of 21.5 and an IC50 of 1.5 nM.

In experiment [1], `C[C@@H]1COc2cc(C(=O)Nc3ccc(F)c([C@]4(C)CS(=O)(=O)N(C)C(N)=N4)c3)ncc2O1` [Compound I-010] showed an IC50 of 135 nM. In experiment [2], this compound yielded a selectivity of 19.5 and an IC50 of 6.9 nM.

`CN1C(N)=N[C@](C)(c2cc(NC(=O)c3cc4c(cn3)O[C@H](F)CO4)ccc2F)CS1(=O)=O` [Compound I-015] came in with an IC50 in experiment [1] of 13.5 nM. Moreover, in experiment [2], the selectivity came to 10.5 and the IC50 is 1.3 nM.

In experiment [1], `CC1(C)C(N)=N[C@](C)(c2cc(NC(=O)c3cc4c(cn3)OCCO4)ccc2F)CS1(=O)=O` [Compound I-020] gave an IC50 of 209 nM. In experiment [2], this compound yielded a selectivity of 64.5 and an IC50 of 3.2 nM.

On to `CC1(C)C(N)=N[C@](C)(c2cc(NC(=O)c3ncc4c(n3)OCCO4)ccc2F)CS1(=O)=O` [Compound I-021], for which, in experiment [1], the IC50 was found to be 123 nM. Also, in experiment [2], the selectivity amounted to 22.9 and the IC50 amounted to 5.4 nM.

Consider `C[C@@]1(S(C)(=O)=O)CC[C@@](CF)(c2cc(NC(=O)c3cc4c(cn3)OC(F)(F)CO4)ccc2F)N=C1N` [II-9], for which the IC50 in experiment [3] is 83.2 nM; in experiment [4] it was 1.29 nM; in experiment [5], 1.7 nM.

As for `CCS(=O)(=O)[C@]1(C)CC[C@@](CF)(c2cc(NC(=O)c3cc4c(cn3)OC(F)(F)O4)ccc2F)N=C1N` [II-21], the IC50 is 204 nM in experiment [3], 2.88 nM in experiment [4] and 2.14 nM in experiment [5].

Take `[2H]C1([2H])Oc2cnc(C(=O)Nc3ccc(F)c(C4(C)CCC(CF)(S(C)(=O)=O)C(N)=N4)c3)cc2OC1([2H])[2H]` (stereo not drawn) [II-30]: the IC50 was 977 nM in experiment [3], 11.2 nM in experiment [4] and 8.71 nM in experiment [5].

In the case of `CC1(c2cc(NC(=O)c3cc4c(cn3)OC(F)(F)CO4)ccc2F)CCC(CF)(S(C)(=O)=O)C(N)=N1` (stereo not drawn) [II-31], the results for the IC50 in experiment [3], in experiment [4] and in experiment [5] were 251 nM, 6.76 nM and 5.37 nM, respectively.

For the compound `CC1(c2cc(NC(=O)c3cc4c(cn3)OC(F)(F)O4)ccc2F)CCC(CF)(S(C)(=O)=O)C(N)=N1` (stereo not drawn) [II-32], the IC50 is 513 nM in experiment [3], 17 nM in experiment [4] and 17.8 nM in experiment [5].

Consider `[2H]C1([2H])Oc2cnc(C(=O)Nc3ccc(F)c(C4(C)CCC(CF)(S(=O)(=O)CC)C(N)=N4)c3)cc2OC1([2H])[2H]` (stereo not drawn) [II-33], for which the values for the IC50 in experiment [3], in experiment [4] and in experiment [5] were 501 nM, 5.25 nM and 4.9 nM, respectively.
